Data as given in US20030134342A1, “Binding-specific peptides, binding-specific carrier molecules, and uses thereof” (priority 2001, published 2003).
Where no end group is shown, it is not given here.

Assays:
CML cells = test: ELISA binding of phage displaying peptides to fixed cells: CML cells; design: species or system human; conditions: in words
Protocol: (§1) Preliminary experiments were performed to identify specific peptides by using cells from patients diagnosed with CLL, CML, and AML. The screening was performed by incubating the cells with the phage-peptides from the library. This incubation allows interaction between the peptide and the cell. The binding step was followed by several washes to eliminate free phage. Phage bound on the cell surface was eluted.
(§2) After the last round of binding with one cell type, the eluted phage was plated on an agar plate with the appropriate selection antibiotics. Each individual colony, corresponding to one individual peptide sequence, was amplified in a 96-well plate. After purification, these peptides were tested for their ability to bind to the cells in a microtiter plate by ELISA.
(§3) Each peptide was dispensed in a 96-well plate, containing cells previously fixed. Each colony was tested in a triplicate assay with the appropriate controls. After incubation of cells with an individual clone, the wells were washed to eliminate free phage. The bound phages were detected by using a monoclonal anti-M13 antibody/horseradish peroxidase (HRP) conjugate. After addition of the HRP substrate, the intensity of the coloration was measured by spectrophotometry. The light absorbance values (optical density values, O.D. values) are proportional to the number of phage bound to the cells.
(§4) The binding to various cell types were examined to evaluate the cellular specificity of the phage clones. For example, the clones from phage eluted from CLL patient cells were assayed for their ability to bind cells from an AML patient. Cells from normal donors (non-leukemic) were also evaluated to ascertain leukemia cell specificity.
(§5) Peripheral blood and bone marrow samples were collected from patients after informed consent. The samples were collected in tubes containing sodium citrate. Mononuclear cells were isolated by Ficoll-Hypaque density gradient separation and collection of the cells at a density of 1.077 g/mL.
(§6) The wells of a 96-well plate were pre-treated with 100 μL of poly-L-lysine (0.01 mg/mL in phosphate-buffered saline, 120 mM NaCl, 2.7 mM KCl, 10 mM phosphate buffer, “PBS”) for 2-16 hours at room temperature. After draining the poly-L-lysine from the wells, the excess poly-L-lysine was removed from the wells by flicking. The cells were washed with PBS, then suspended in PBS and diluted to a final concentration of […]. The cell suspension (200 μL; 250,000 cells) were added to each well needed for the assay.
(§7) The plates were centrifuged at 500 g for about 5 minutes in a microplate carrying centrifuge when available. The cells were fixed to the wells through the addition of glutaraldehyde (100 μL of 0.5%) and incubating at room temperature for about an hour. The glutaraldehyde was removed and the cell-coated wells washed once with PBS. Alternatively, the cells were permitted to settle to the well bottoms for about 4 hours at 37° C., and the glutaraldehyde fixative was added after removing the PBS.
(§8) A glycine solution (200 μl of 0.1 M glycine in PBS) containing bovine serum albumin (BSA; 1%) was added to the wells and permitted to incubate for 30 minutes to block excess glutaraldehyde. The glycine was removed, and the cell-coated wells washed once with PBS. A sodium pyrophosphate solution (200 μL of 0.3 mg/mL NaPPi) was added to the wells and incubated for an hour at room temperature to neutralize lysine charges. The pyrophosphate solution was removed and the wells washed once with PBS. Multiwell microtiter plates with cell-coated wells were stored at 4° C. with fresh PBS solution in the coated wells.
(§9) The cells to be studied for binding were suspended in PBS and adsorbed onto to a poly-L-lysine pretreated 96-well plate and kept at 4° C. The PBS was removed from the wells and an H2O2 solution in PBS (6% H2O2 in 200 μL/well) was added. […]

AML cells = test: ELISA binding of phage displaying peptides to fixed cells: AML cells; design: species or system human; conditions: in words
Protocol: as §1, §2, §3, §4, §5, §6, §7, §8, §9

[1] = test system: normal peripheral blood cells (lymphocytes and granulocytes); test: ELISA binding of phage displaying peptides to fixed cells: normal peripheral blood cells; design: species or system human; conditions: in words
Protocol: as §1, §2, §3, §4, §5, §6, §7, §8, §9

CLL cells = test: ELISA binding of phage displaying peptides to fixed cells: CLL cells; design: species or system human; conditions: in words
Protocol: as §1, §2, §3, §4, §5, §6, §7, §8, §9

[2] = test system: all myeloid cells, both malignant and nonmalignant; test: ELISA binding of phage displaying peptides to fixed cells: all myeloid cells; design: species or system human; conditions: in words
Protocol: as §1, §2, §3, §4, §5, §6, §7, §8, §9

[3] = test system: human myeloid leukemia cell line HL60; test: Viability of HL60 cells, trypan blue; format: cell-based
Protocol: Studies were conducted of the effects of the free G5 12-8B (artificially synthesized), phage displaying G5 12-8B, the free A2 11-24 peptide, phage displaying the A2 11-24 peptide, a combination of the free G5 and A2 peptides, a combination of pure peptides plus phage displaying the peptides, and several concentrations of peptide.

[4] = test system: human bone marrow AML cells; test: Effect of phage-peptides on differentiation, cell number and viability of freshly obtained AML patient bone marrow cells cultured seven days; format: cell-based; conditions: for Number of Cells / Percent Differentiation / Viability: phage-peptides; for Percent differentiated in Specimen 1 / Percent differentiated in Specimen 2: peptides in bacteriophage, AML cells cultured seven days in vitro
Description: The effect of various phage-peptides were studied on the differentiation of cells from two AML patients.

| Substance | binding of phage displaying the peptide to CML cells (CML cells) | binding of phage displaying the peptide to AML cells (AML cells) | binding of phage displaying the peptide to blood cells (lymphocytes or granulocytes) [1] | binding of phage displaying the peptide to CLL cells (CLL cells) | binding of phage displaying the peptide to all myeloid cells, both malignant and nonmalignant [2] | also measured |
| --- | --- | --- | --- | --- | --- | --- |
| IEETARKG [D9 12-8B] | bind | bind | bind | bind | bind | – |
| IEETARKG [peptide A2] | – | – | – | – | – | Day 5 Viability ([3]; 5 day): 97%; Day 7 Viability ([3]; 7 day): 95%; Day 9 Viability ([3]; 9 day): 74% |
| NELHMKQH [G6 12-8B] | – | – | – | – | bind | – |
| NETTVREY [A7 11-24] | – | – | bind | bind | – | – |
| NETTVREY [C9 11-24] | bind | bind | bind | bind | bind | – |
| NETTVREY [F10 11-24] | bind | bind | – | not | bind | – |
| NHVCSRLG [B4(2)] | bind | bind | bind | bind | – | – |
| NHVCSRLG [B6 11-24] | – | – | – | – | bind | – |
| NNATFEDG [G2 12-8A] | – | – | – | – | – | Number of Cells ([4]; Patient 1): 0.93 106; Percent Differentiation ([4]; Patient 1): 27.5%; Number of Cells ([4]; Patient 2): 0.31 106; Percent Differentiation ([4]; Patient 2): 52%; Percent differentiated in Specimen 1 [4]: 28%; Percent differentiated in Specimen 2 [4]: 51% |
| NNATVEDE [F9 11-24] | – | – | – | – | bind | – |
| VSEDIYDA [C10 12-8B] | bind | bind | – | bind | bind | – |
| VSEDIYDA [E5 12-8B] | – | – | bind | bind | – | – |
| VSEDIYDA [F1 12-8B] | binds and bind | binds and bind | – | not | bind | Number of Cells ([4]; Patient 1): 0.82 106; Percent Differentiation ([4]; Patient 1): 34%; Number of Cells ([4]; Patient 2): 0.22 106; Percent Differentiation ([4]; Patient 2): 52%; Percent differentiated in Specimen 1 [4]: 34%; Percent differentiated in Specimen 2 [4]: 52% |
| granulocyte-macrophage colony-stimulating factor [GM-CSF] | – | – | – | – | – | Number of Cells ([4]; Patient 1): 1.57 106; Percent Differentiation ([4]; Patient 1): 21%; Viability ([4]; Patient 1): 80%; Number of Cells ([4]; Patient 2): 0.87 106; Percent Differentiation ([4]; Patient 2): 16.5%; Viability ([4]; Patient 2): 89%; Percent differentiated in Specimen 1 [4]: 21%; Percent differentiated in Specimen 2 [4]: 17% |
